ChEMBL document CHEMBL1132027, “Trifluoromethyl ketone inhibitors of fatty acid amide hydrolase: a probe of structural and conformational features contributing to inhibition” (Bioorg Med Chem Lett, 1999)

What was measured:
[1] = target: T1, Fatty-acid amide hydrolase 1 (Rattus norvegicus, UniProt P97612); assay: Inhibitory concentration against Fatty-acid amide hydrolase (FAAH) in rat liver
T1 sequence (P97612 whole entry): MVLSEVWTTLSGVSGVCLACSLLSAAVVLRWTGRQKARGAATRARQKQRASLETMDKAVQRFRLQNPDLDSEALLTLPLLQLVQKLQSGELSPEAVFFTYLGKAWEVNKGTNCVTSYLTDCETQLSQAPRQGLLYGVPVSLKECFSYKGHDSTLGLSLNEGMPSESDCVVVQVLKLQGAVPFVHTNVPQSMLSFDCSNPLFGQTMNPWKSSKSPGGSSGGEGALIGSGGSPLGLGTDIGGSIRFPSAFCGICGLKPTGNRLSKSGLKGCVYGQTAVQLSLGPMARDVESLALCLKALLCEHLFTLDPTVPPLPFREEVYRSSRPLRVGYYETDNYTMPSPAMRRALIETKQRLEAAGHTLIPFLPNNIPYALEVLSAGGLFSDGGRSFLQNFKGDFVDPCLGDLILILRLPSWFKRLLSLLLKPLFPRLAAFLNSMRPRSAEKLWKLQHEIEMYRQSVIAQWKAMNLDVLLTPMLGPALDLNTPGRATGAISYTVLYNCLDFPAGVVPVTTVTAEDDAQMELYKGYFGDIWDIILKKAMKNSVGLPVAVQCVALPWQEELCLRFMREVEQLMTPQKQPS

[2] = target: T1, Fatty-acid amide hydrolase 1; assay: Inhibitory constant against Fatty-acid amide hydrolase (FAAH) in rat liver; type: tissue-based

IC50 [1]	Ki [2]	Structure (SMILES)
> 100 µM	> 100 µM	CCc1cc2cc3ccccc3cc2cc1CC(=O)C(F)(F)F
2.4 µM	0.44 µM	CCCCOC[C@@H]1CC=CC[C@H]1COCCCC(=O)C(F)(F)F
0.76 µM	0.14 µM	CCCCCCc1cccc(CCCCCCC(=O)C(F)(F)F)c1
0.84 µM	0.17 µM	O=C(CCCCCc1ccccc1)C(F)(F)F
9.7 µM	1.2 µM	CCCCOC[C@@H]1CCCC[C@H]1COCCCC(=O)C(F)(F)F
2.5 µM	0.32 µM	CCCCCCCCc1ccccc1CCCCCCCC(=O)C(F)(F)F
2.3 µM	0.49 µM	CCCCCCCCCCCCCC(=O)C(F)(F)F
1.2 µM	0.24 µM	CCCCCCCCCCCCCCCCCC(=O)C(F)(F)F
0.6 µM	0.13 µM	CCCCCCCCCC(=O)C(F)(F)F
0.13 µM	0.14 µM	CCCCCCCCCCCC(=O)C(F)(F)F
52.8 µM	10.7 µM	CCCCCCC(=O)C(F)(F)F
30.1 µM	4.4 µM	CCCCc1cc2ccccc2cc1CCCC(=O)C(F)(F)F
0.59 µM	0.096 µM	CCCCCCCc1ccc(CCCCCCC(=O)C(F)(F)F)cc1
3 µM	0.57 µM	CCCCOC[C@H]1CC=CC[C@H]1COCCCC(=O)C(F)(F)F
0.45 µM	0.1 µM	O=C(CCCCCCc1ccccc1)C(F)(F)F
0.12 µM	0.025 µM	O=C(CCCCCCCc1ccccc1)C(F)(F)F
13.1 µM	2.8 µM	CCCCCCc1ccccc1CCCCCC(=O)C(F)(F)F
> 100 µM	> 100 µM	CCCCCCCC/C=C\CCCCCCCC(C)=O
185 µM	26.9 µM	CCCCCC(=O)C(F)(F)F
6.6 µM	1.2 µM	CCCCCCCC(=O)C(F)(F)F
5.7 µM	0.78 µM	CCCCOC[C@H]1CCCC[C@H]1COCCCC(=O)C(F)(F)F

Structure (SMILES)	IC50 [1]	Ki [2]
CCCCCCCC/C=C/CCCCCCCC(=O)C(F)(F)F	0.78 µM	0.17 µM
CCCCCCCC/C=C\CCCCCCCC(=O)C(F)(F)F	0.46 µM	0.082 µM
